Assay results reported in patent US20260297136A1, “PEPTIDES WITH LIPOLYTIC, ANTI-LIPOGENIC, ANTIFIBROTIC AND ANTI-INFLAMMATORY ACTIVITY” (FUNDACIÓ HOSPITAL UNIVERSITARI VALL D'HEBRON - INSTITUT DE …, priority 2023, published 2026).

Assays:
human mature adipocytes = assay: Lipolysis in human mature adipocytes (glycerol production), Example 3; type: cell-based; conditions: 16 h
Description: FIG. 4 Mature human subcutaneous adipocytes were treated with vehicle (DMSO), 1 μM of Isoproterenol, Semaglutide (10 nM) or GP6 (25, 50 or 100 μg/ml) for 16 h. Glycerol concentration was assessed using a Lipolysis Assay Kit (Tebu-bio).
Human preadipocytes and cell culture reagents were from purchased from Tebu-Bio (Tebu-bio, Barcelona, Spain) and differentiation protocol was done following the manufacturer's instructions. Human adipocytes were maintained in a humidified incubator with 5% CO2 at 37° C. (Sex hormone-binding globulin overexpression protects against high-fat diet-induced obesity in transgenic male mice. Saez-Lopez C, Villena J A, Simo R, Selva D M. J Nutr Biochem. 2020 November; 85:108480. doi: 10.1016/j.jnutbio.2020.108480).
Lipolysis assays were performed using a Lipolysis Kit (Tebu-Bio) following the manufacturer's instructions as previously described by Saez-Lopez and collaborators (Sex hormone-binding globulin overexpression protects against high-fat diet-induced obesity in transgenic male mice. Saez-Lopez C, Villena J A, Simo R, Selva D M. J Nutr Biochem. 2020 November; 85:108480. doi: 10.1016/j.jnutbio.2020.108480.)

[1] = system: obesity and fatty liver disease mouse model; assay: Therapeutic effects in an obesity and fatty liver disease mouse model, Example 6; type: in vivo, C57BL6/J male mice
Description: C57BL6/J male mice were purchased and kept for quarantine and acclimatization for a period of about 7 days before initiation of every experiment. Mice were housed in clean and sterilized mice cages and maintained in a controlled environment with 22+3° C. temperature, 50+20% humidity, a light/dark cycle of 12 hours each and 15-20 fresh air changes per hour.
For Obesity and NAFLD induction, the animals were fed ad libitum, either with chow diet (150SP-10, Safe Diets) or 45% high-fat diet (TD.190179, Envigo) plus 30% fructose (F0127, Sigma Aldrich) in drinking water for 20 weeks. The therapeutic effect of a daily subcutaneous injection of GP6 (20 mg/kg/day) in this mouse model was assessed for 10 weeks, starting the treatment on week 10 of the experiment until week 20.
A group of control mice (n=10) was fed with control diet and regular drinking water and a group of mice (n=30) obesity and fatty liver disease was induced for 10 weeks. At this point, mice were randomly divided in three groups of n=10, the first group was treated with daily subcutaneous injections of vehicle (water), the second group was treated with Telmisartan (5 mg/kg/day) in the drinking water and a subcutaneous injection of vehicle, and the third group with daily subcutaneous injection of GP6 (20 mg/kg/day) during 10 weeks.
At the end of the experiment mice were sacrificed, serum samples were extracted, tissues were weighted and part was fixed in paraformaldehyde for histology studies and part immediately frozen at −80 C for mRNA and protein expression studies as well as assessment of triglycerides.
The histology studies, AST and ALT measurements, TG measurements, and the RNA analysis were performed as described in Example 4.

HepG2 cells = assay: Hepatic lipogenesis in HepG2 cells induced by 30 mM fructose (ACC and PPARγ mRNA), Example 3; type: cell-based, human; conditions: 5 days
Description: FIG. 2. Human hepatoblastoma cell line HepG2 was treated with vehicle (DMSO) in the absence or presence of 30 mM fructose and Telmisartan (5 μg/ml), Semaglutide (10 nM) or GP6 (10 or 40 μg/ml) for 5 days. RNA was extracted and mRNA levels of Acetyl-CoA Carboxylase (ACC) (panel A) and Peroxisome proliferator-activated receptor gamma (PPARγ) (panel B) relative to 18S were measured by RTPCR.
Cell culture reagents were from Life Technologies Inc (Invitrogen SA, Barcelona, Spain). HepG2 hepatoblastoma cells (cat. no. HB-8065; ATCC, LGC Standards SLU, Barcelona, Spain) were maintained in Dulbecco's modified Eagle medium (DMEM) supplemented with 10% fetal bovine serum and antibiotics. HepG2 cells were cultured for 5 day in the absence or presence of 30 mM fructose. Cells cultured in 30 mM fructose were daily treated with vehicle, Telmisartan, Semaglutide or GP6. LX-2 human hepatic stellate cells (SCC064) were maintained in DMEM supplemented with 2% fetal bovine serum and antibiotics. For experiments, LX-2 were cultured for 24 h in DMEM 0.2% FBS and treated for 24 h with vehicle or TGFβ1 (20 ng/ml) in the absence or presence of GP6 (10 or 40 μg/ml). At the end of the experiment's cells were harvested for gene expression analysis.
Total RNA was extracted from HepG2 and LX-2 cells using TRIzol reagent (Invitrogen SA). Reverse transcription was performed at 42° C. for 50 minutes using […] of total RNA, 200 U of Superscript II, and an oligo-dT primer and reagents provided by Invitrogen. […] Results were analyzed using the 7000 Sequence Detection System program (Applied Biosystems, Thermo Fisher Scientific, Barcelona, Spain) (Sex Hormone-Binding Globulin Reduction in Metabolic Disorders May Play a Role in NAFLD Development.Saez-Lopez C, Barbosa-Desongles A, Hernandez C, Dyer R A, Innis S M, Simo R, Selva D M. Endocrinology. 2017 Mar. 1; 158(3):545-559. doi: 10.1210/en.2016-1668).

[2] = 20 mg/kg/day sc, 10 weeks, vs vehicle
[3] = 20 mg/kg/day sc, 10 weeks, blind pathologist, lipid reduction corroborated

CC[C@@H](C)[C@@H](NC(=O)[C@H](NC(=O)CNC(=O)[C@@H](CCC(=O)O)NC(=O)[C@H]1CCCN1C(=O)[C@@H](CC(=O)O)NC(=O)[C@@H](Cc1c[nH]c2ccccc12)NC(=O)[C@H](NC(=O)[C@@H](CCCNC(=N)N)NC(=O)[C@H](NC(=O)[C@@H](CCC(=O)O)NC(=O)[C@@H](Cc1ccccc1)NC(=O)[C@@H](CO)NC(=O)[C@@H](CO)NC(=O)[C@@H](CO)NC(=O)[C@H](NC(=O)[C@@H](CCCCN)NC(=O)[C@H](N)[C@H](C)O)[C@H](C)O)C(C)C)[C@H](C)O)C(C)C)C(=O)N[C@H](Cc1ccccc1)C(=O)N[C@H](Cc1ccc(O)cc1)C(=O)O [GP6]
increase of glycerol production (lipolysis) (human mature adipocytes; 25 μg/ml): 200%
increase of glycerol production (lipolysis) (human mature adipocytes; 50 μg/ml): 270%
increase of glycerol production (lipolysis) (human mature adipocytes; 100 μg/ml): 315%
lipolysis induction compared with Semaglutide (human mature adipocytes; GP6 25, 50 or 100 μg/ml versus Semaglutide 10 nM): performing more efficiently than Semaglutide
AST serum levels ([1]; 20 mg/kg/day sc, 10 weeks): reduced significantly
hepatic fibrosis (picrosirius staining) ([1]; 20 mg/kg/day sc, 10 weeks): did not showed hepatic fibrosis
total body weight gain ([1]; 20 mg/kg/day sc, 10 weeks): reducing total body weight gain
reduction of hepatic lipid accumulation compared with Telmisartan ([1]; 20 mg/kg/day sc, 10 weeks, vs Telmisartan 5 mg/kg/day): to a greater extend than Telmisartan treatment
Total body weight versus control mice ([1]; 20 mg/kg/day sc, 10 weeks, vs control diet mice): not significantly heavier than control mice
ACC mRNA levels in hepatic tissue [1, 2]: reduced the mRNA levels
Col1A1 expression in hepatic tissue [1, 2]: reduced expression levels
F480 mRNA levels (adipose tissue inflammation) [1, 2]: reduced expression
F480 mRNA levels in hepatic tissue [1, 2]: reduced expression
IL1β expression (adipose tissue inflammation) [1, 2]: reduced expression
PPARγ mRNA levels in hepatic tissue [1, 2]: reduced the mRNA levels
TGFβ1 expression in hepatic tissue [1, 2]: reduced expression levels
adipose tissue fibrosis (Col1A mRNA expression) [1, 2]: reduced adipose tissue fibrosis
heart fibrosis (Col1A1 mRNA expression) [1, 2]: reduced heart fibrosis
hepatic expression of TNFα [1, 2]: reduced the hepatic expression
liver triglyceride (TAG) content [1, 2]: reduced significantly
liver weight [1, 2]: reduced significantly
serum glucose levels [1, 2]: reduced the increase glucose levels
hepatic lipid accumulation (histology) ([1]; 20 mg/kg/day sc, 10 weeks, vs vehicle, H&E): reduced significantly
Brunt score [1, 3]: corroborated
Steatosis score [1, 3]: corroborated
Alanine transaminase (ALT) serum levels ([1]; sc, as stated in the summary for Example 6): reduction
effectiveness in reducing the induced expression of ACC and PPARγ versus positive controls (HepG2 cells; GP6 10 or 40 μg/ml versus Telmisartan 5 μg/ml and Semaglutide 10 nM, 30 mM fructose): significantly much more effective than Telmisartan and Semaglutide
ACC mRNA levels induced by 30 mM fructose (HepG2 cells; GP6 10 or 40 μg/ml, daily): reducing mRNA levels
PPARγ mRNA levels induced by 30 mM fructose (HepG2 cells; GP6 10 or 40 μg/ml, daily): reducing mRNA levels
